Like-named read-outs stand apart in the source and are kept apart here.
Experiments:
[1] = tested on: full length SMN2 minigene mRNA (HEK293H cells stably transfected with SMN2-A minigene); assay: RT-qPCR assay for SMN2 minigene pre-mRNA splicing in cultured cells; assay type: cell-based; conditions: Homo sapiens, HEK293-H, 24 hours
[2] = tested on: SMN protein in SMA patient fibroblast cells (GM03813); assay: SMN protein assay (HTRF) in cultured cells; assay type: cell-based; conditions: Homo sapiens, SMA Type 1 patient fibroblasts, 48 hours; for EC (1.5-fold): concentration producing 1.5 times SMN protein vs vehicle, read-out: EC1.5x SMN protein; for maximal fold induction: relative to vehicle control, read-out: max. fold increase of SMN protein
Experimental: The SMN HTRF (homogeneous time resolved fluorescence) assay is used to quantify the level of SMN protein in SMA patient fibroblast cells treated with test compounds. Materials used and respective sources are listed below in Table 4.
Cells are thawed and cultured in DMEM-10% FBS for 72 hours. Cells are trypsinized, counted and re-suspended to a concentration of 25,000 cells/mL in DMEM-10% FBS. The cell suspensions are plated at 5,000 cells per well in a 96 well microtiter plate and incubated for […]. […] 1 μL of test compound solution is transferred to cell-containing wells and cells are incubated for 48 hours in a cell culture incubator (37° C., 5% CO2, 100% relative humidity). Triplicate samples are set up for each test compound concentration. After 48 hours, the supernatant is removed from the wells and 25 μL of the RIPA lysis buffer, containing protease inhibitors, is added to the wells and incubated with shaking at room temperature for 1 hour. 25 μL of the diluent is added and then 35 μL of the resulting lysate is transferred to a 384-well plate, where each well contains 5 μL of the antibody solution (1:100 dilution of anti-SMN d2 and anti-SMN cryptate in SMN reconstitution buffer). The plate is centrifuged for 1 minute to bring the solution to the bottom of the wells, then incubated overnight at room temperature. Fluorescence for each well of the plate at 665 nm and 620 nm is measured on an EnVision multilabel plate reader (Perkin-Elmer).
The normalized fluorescence signal is calculated for each sample, Blank and vehicle control well by dividing the signal at 665 nm by the signal at 620 nm. Normalizing the signal accounts for possible fluorescence quenching due to the matrix effect of the lysate. The ΔF value (a measurement of SMN protein abundance as a percent value) for each sample well is calculated by subtracting the normalized average fluorescence for the Blank control wells from the normalized fluorescence for each sample well, then dividing this difference by the normalized average fluorescence for the Blank control wells and multiplying the resulting value by 100. The ΔF value for each sample well represents the SMN protein abundance from test compound-treated samples. The ΔF value for each sample well is divided by the ΔF value for the vehicle control wells to calculate the fold increase in SMN protein abundance relative to the vehicle control. Table 5 provides EC1-5× concentrations for SMN protein expression that was obtained from the 7-point concentration data generated according to the above procedure for particular compounds of the present invention.
Table 6 provides the maximum fold increase of SMN protein that was obtained from the 7-point concentration data generated according to the above procedure for particular compounds of the present invention

[3] = concentration increasing full length SMN2 minigene mRNA 1.5-fold vs vehicle, read-out: EC1.5x minigene
[4] = Table 3 (title: production of full length SMN2 minigene mRNA), read-out: EC1.5x SMN protein

SMILES: Cc1nc2ncc(-c3cc(=O)n4cc(N5CCNCC5)ccc4n3)cn2n1 [Example 1, 2-(2-methyl-[1,2,4]triazolo[1,5-a]pyrimidin-6-yl)-7-piperazin-1-yl-pyrido[1,2-a]pyrimidin-4-one]
- EC (1.5-fold) [1, 3]: 0.0584 µM
- EC (1.5-fold) [2]: 0.221 µM
- maximal fold induction [2]: 1.9

SMILES: Cc1nc2ncc(-c3cc(=O)n4cc(N5C[C@@H](C)N[C@@H](C)C5)ccc4n3)cn2n1 [Example 2, 7-[(3R,5S)-3,5-dimethylpiperazin-1-yl]-2-(2-methyl-[1,2,4]triazolo[1,5-a]pyrimidin-6-yl)pyrido[1,2-a]pyrimidin-4-one]
- EC (1.5-fold) [1, 3]: 0.067 µM
- EC (1.5-fold) [2]: 0.508 µM
- maximal fold induction [2]: 1.93

SMILES: Cc1nc2ncc(-c3cc(=O)n4cc(N5CC[C@@H](N(C)C)C5)ccc4n3)cn2n1 [Example 3, 7-[(3R)-3-(dimethylamino)pyrrolidin-1-yl]-2-(2-methyl-[1,2,4]triazolo[1,5-a]pyrimidin-6-yl)pyrido[1,2-a]pyrimidin-4-one]
- EC (1.5-fold) [1, 3]: 0.0452 µM
- EC (1.5-fold) [2]: 0.52 µM
- maximal fold induction [2]: 1.79

SMILES: Cc1nc2ncc(-c3cc(=O)n4cc(N5CCCN(C)CC5)ccc4n3)cn2n1 [Example 4, 7-(4-methyl-1,4-diazepan-1-yl)-2-(2-methyl-[1,2,4]triazolo[1,5-a]pyrimidin-6-yl)pyrido[1,2-a]pyrimidin-4-one]
- EC (1.5-fold) [1, 3]: 0.1 µM
- EC (1.5-fold) [2]: 0.324 µM
- maximal fold induction [2]: 1.78

SMILES: Cc1nc2ncc(-c3cc(=O)n4cc(N5CC6(CCNCC6)C5)ccc4n3)cn2n1 [Example 5, 7-(2,7-diazaspiro[3.5]nonan-2-yl)-2-(2-methyl-[1,2,4]triazolo[1,5-a]pyrimidin-6-yl)pyrido[1,2-a]pyrimidin-4-one]
- EC (1.5-fold) [1, 3]: < 0.0317 µM
- EC (1.5-fold) [2]: 0.106 µM
- maximal fold induction [2]: 1.99

SMILES: Cc1nc2ncc(-c3cc(=O)n4cc(N5CCNC(C)(C)C5)ccc4n3)cn2n1 [Example 6, 7-(3,3-dimethylpiperazin-1-yl)-2-(2-methyl-[1,2,4]triazolo[1,5-a]pyrimidin-6-yl)pyrido[1,2-a]pyrimidin-4-one]
- EC (1.5-fold) [1, 3]: 0.201 µM
- EC (1.5-fold) [2]: 2.15 µM
- maximal fold induction [2]: 1.7

SMILES: Cc1nc2ncc(-c3cc(=O)n4cc(N5CC6(CNC6)C5)ccc4n3)cn2n1 [Example 7, 7-(2,6-diazaspiro[3.3]heptan-2-yl)-2-(2-methyl-[1,2,4]triazolo[1,5-a]pyrimidin-6-yl)pyrido[1,2-a]pyrimidin-4-one]
- EC (1.5-fold) [1, 3]: 0.107 µM
- EC (1.5-fold) [2]: 0.247 µM
- maximal fold induction [2]: 1.78

SMILES: Cc1nc2ncc(-c3cc(=O)n4cc(N5CC6CN(C)CC6C5)ccc4n3)cn2n1 (stereo not drawn) [Example 8]
- EC (1.5-fold) [1, 3]: 0.0659 µM
- EC (1.5-fold) [2]: 0.313 µM
- maximal fold induction [2]: 1.85

SMILES: Cc1nc2ncc(-c3cc(=O)n4cc(N5CC6CNC6C5)ccc4n3)cn2n1 (stereo not drawn) [Example 9, 7-(3,6-diazabicyclo[3.2.0]heptan-3-yl)-2-(2-methyl-[1,2,4]triazolo[1,5-a]pyrimidin-6-yl)pyrido[1,2-a]pyrimidin-4-one]
- EC (1.5-fold) [1, 3]: 0.283 µM
- EC (1.5-fold) [2]: 2.88 µM
- maximal fold induction [2]: 1.9

SMILES: Cc1nc2ncc(-c3cc(=O)n4cc(N5CCN(C6CNC6)CC5)ccc4n3)cn2n1 [Example 10, 7-[4-(azetidin-3-yl)piperazin-1-yl]-2-(2-methyl-[1,2,4]triazolo[1,5-a]pyrimidin-6-yl)pyrido[1,2-a]pyrimidin-4-one]
- EC (1.5-fold) [1, 3]: 5.93 µM
- EC (1.5-fold) [2]: 30 µM
- maximal fold induction [2]: 1.5

SMILES: Cc1nc2ncc(-c3cc(=O)n4cc(N5C[C@H](C)N[C@@H](C)C5)ccc4n3)cn2n1 [Example 11, 7-[(3S,5S)-3,5-dimethylpiperazin-1-yl]-2-(2-methyl-[1,2,4]triazolo[1,5-a]pyrimidin-6-yl)pyrido[1,2-a]pyrimidin-4-one]
- EC (1.5-fold) [1, 3]: < 0.03 µM
- EC (1.5-fold) [2]: 0.175 µM
- maximal fold induction [2]: 1.77

SMILES: Cc1nc2ncc(-c3cc(=O)n4cc(N5CCC(CN6CCCC6)CC5)ccc4n3)cn2n1 [Example 12, 7-[4-(pyrrolidin-1-ylmethyl)-1-piperidyl]-2-(2-methyl-[1,2,4]triazolo[1,5-a]pyrimidin-6-yl)-pyrido[1,2-a]pyrimidin-4-one]
- EC (1.5-fold) [1, 3]: 0.161 µM
- EC (1.5-fold) [2]: > 31.6 µM
- maximal fold induction [2]: 1.36

SMILES: Cc1nc2ncc(-c3cc(=O)n4cc(N5CCNC6(CC6)C5)ccc4n3)cn2n1 [Example 13, 7-(4,7-diazaspiro[2.5]octan-7-yl)-2-(2-methyl-[1,2,4]triazolo[1,5-a]pyrimidin-6-yl)pyrido[1,2-a]pyrimidin-4-one]
- EC (1.5-fold) [1, 3]: 2.55 µM
- EC (1.5-fold) [2]: 14.1 µM
- maximal fold induction [2]: 1.52

SMILES: Cc1nc2ncc(-c3cc(=O)n4cc(N5CCN(C6COC6)CC5)ccc4n3)cn2n1 [Example 14, 7-[4-(oxetan-3-yl)piperazin-1-yl]2-(2-methyl-[1,2,4]triazolo[1,5-a]pyrimidin-6-yl)pyrido[1,2-a]pyrimidin-4-one]
- EC (1.5-fold) [1, 3]: 26.2 µM
- EC (1.5-fold) [2]: > 31.6 µM
- maximal fold induction [2]: 1.35

SMILES: Cc1nc2ccc(-c3cc(=O)n4cc(N5CCNCC5)cc(C)c4n3)nn2n1 [Example 15, 9-methyl-7-piperazin-1-yl-2-(2-methyl-[1,2,4]triazolo[1,5-b]pyridazin-6-yl)pyrido[1,2-a]pyrimidin-4-one]
- EC (1.5-fold) [1, 3]: < 0.03 µM
- EC (1.5-fold) [2]: < 0.03 µM
- maximal fold induction [2]: 1.82

SMILES: Cc1nc2ncc(-c3cc(=O)n4cc(N5CCN[C@@H](C)C5)ccc4n3)cn2n1 [Example 16, 7-[(3S)-3-methylpiperazin-1-yl]-2-(2-methyl-[1,2,4]triazolo[1,5-a]pyrimidin-6-yl)pyrido[1,2-a]pyrimidin-4-one]
- EC (1.5-fold) [1, 3]: 0.115 µM
- EC (1.5-fold) [2]: 0.281 µM
- maximal fold induction [2]: 1.71

SMILES: Cc1nc2ccc(-c3cc(=O)n4cc(N5CCN[C@H](C)C5)ccc4n3)nn2n1 [Example 17, 7-[(3R)-3-methylpiperazin-1-yl]-2-(2-methyl-[1,2,4]triazolo[1,5-b]pyridazin-6-yl)pyrido[1,2-a]pyrimidin-4-one]
- EC (1.5-fold) [1, 3]: 0.0191 µM
- EC (1.5-fold) [2]: 0.0932 µM
- maximal fold induction [2]: 1.82

SMILES: Cc1nc2ccc(-c3cc(=O)n4cc(N5CCN[C@@H](C)C5)ccc4n3)nn2n1 [Example 18, 7-[(3S)-3-methylpiperazin-1-yl]-2-(2-methyl-[1,2,4]triazolo[1,5-b]pyridazin-6-yl)pyrido[1,2-a]pyrimidin-4-one]
- EC (1.5-fold) [1, 4]: 0.0176 µM
- EC (1.5-fold) [2]: 0.0515 µM
- maximal fold induction [2]: 1.72

SMILES: Cc1nc2ccc(-c3cc(=O)n4cc(N5CCNCC5)ccc4n3)nn2n1 [Example 19, 7-piperazin-1-yl-2-(2-methyl-[1,2,4]triazolo[1,5-b]pyridazin-6-yl)pyrido[1,2-a]pyrimidin-4-one]
- EC (1.5-fold) [1, 4]: 0.009 µM
- EC (1.5-fold) [2]: 0.0392 µM
- maximal fold induction [2]: 1.81

SMILES: Cc1nc2ccc(-c3cc(=O)n4cc(N5CCCN(C)CC5)ccc4n3)nn2n1 [Example 20, 7-(4-methyl-1,4-diazepan-1-yl)-2-(2-methyl-[1,2,4]triazolo[1,5-b]pyridazin-6-yl)pyrido[1,2-a]pyrimidin-4-one]
- EC (1.5-fold) [1, 4]: 0.0418 µM
- EC (1.5-fold) [2]: 0.12 µM
- maximal fold induction [2]: 1.77

SMILES: Cc1nc2ncc(-c3cc(=O)n4cc(N5CC6(CN(C)C6)C5)ccc4n3)cn2n1 [Example 21, 7-(6-methyl-2,6-diazaspiro[3.3]heptan-2-yl)-2-(2-methyl-[1,2,4]triazolo[1,5-a]pyrimidin-6-yl)pyrido[1,2-a]pyrimidin-4-one]
- EC (1.5-fold) [1, 4]: 0.145 µM
- EC (1.5-fold) [2]: 0.56 µM
- maximal fold induction [2]: 1.6

SMILES: Cc1nc2ccc(-c3cc(=O)n4cc(N5C[C@@H](C)N[C@@H](C)C5)ccc4n3)nn2n1 [Example 22, 7-[(3R,5S)-3,5-dimethylpiperazin-1-yl]-2-(2-methyl-[1,2,4]triazolo[1,5-b]pyridazin-6-yl)pyrido[1,2-a]pyrimidin-4-one]
- EC (1.5-fold) [1, 4]: 0.0434 µM
- EC (1.5-fold) [2]: 0.228 µM
- maximal fold induction [2]: 1.76

SMILES: Cc1nc2ncc(-c3cc(=O)n4cc(N5CCN(C)CC5)ccc4n3)cn2n1 [Example 23, 7-(4-methylpiperazin-1-yl)-2-(2-methyl-[1,2,4]triazolo[1,5-a]pyrimidin-6-yl)pyrido[1,2-a]pyrimidin-4-one]
- EC (1.5-fold) [1, 4]: 0.0952 µM
- EC (1.5-fold) [2]: 0.477 µM
- maximal fold induction [2]: 1.68

— US10208067B2, “Compounds for treating spinal muscular atrophy” (Hoffmann-La Roche Inc., priority 2015, dated 2019)
